Settings: 283.15 K, Liquid, Vibrating tube method

CCCCCCCCCC [decane]
Settings	mass density [kg/m3]
3625 kPa	740.1
3634 kPa	740.1
3651 kPa	740.3
3666 kPa	740.1
3675 kPa	740.1
3689 kPa	740
3701 kPa	740.1
3713 kPa	740.1
3724 kPa	740.1
3735 kPa	740.2
3748 kPa	740.2
3759 kPa	740
3774 kPa	740.2
3789 kPa	740.1
3800 kPa	740.1
3899 kPa	740.2
3917 kPa	740.3
3930 kPa	740.1
3945 kPa	740.3
3957 kPa	740.3
3968 kPa	740.3
3982 kPa	740.4
3992 kPa	740.4
4007 kPa	740.4
4017 kPa	740.3
4031 kPa	740.3
4042 kPa	740.3
4055 kPa	740.3
4085 kPa	740.4
4096 kPa	740.2
4114 kPa	740.5
4129 kPa	740.3
4147 kPa	740.4
4160 kPa	740.5
4179 kPa	740.5
4197 kPa	740.4
4212 kPa	740.5
4229 kPa	740.4
4247 kPa	740.5
4263 kPa	740.4
4277 kPa	740.5
4292 kPa	740.5
4306 kPa	740.6
4321 kPa	740.4
4333 kPa	740.6
4349 kPa	740.5
4362 kPa	740.6
4394 kPa	740.6
4410 kPa	740.5
4424 kPa	740.5
4437 kPa	740.5
4455 kPa	740.7
4468 kPa	740.6
4484 kPa	740.7
4499 kPa	740.7
4514 kPa	740.7
4533 kPa	740.6
4549 kPa	740.8
4565 kPa	740.7
4579 kPa	740.7
4603 kPa	740.8
4628 kPa	740.7
4648 kPa	740.8
4667 kPa	740.7
4770 kPa	740.8
4791 kPa	740.9
4811 kPa	740.9
4835 kPa	740.9
5291 kPa	741.2
5334 kPa	741.3
5356 kPa	741.3
5377 kPa	741.3
5399 kPa	741.3
5421 kPa	741.4
5444 kPa	741.4
5463 kPa	741.4
5486 kPa	741.3
5505 kPa	741.3
5529 kPa	741.5
5549 kPa	741.4
5573 kPa	741.5
5624 kPa	741.5
5644 kPa	741.5
5662 kPa	741.5
5674 kPa	741.4
5686 kPa	741.6
5700 kPa	741.6
5719 kPa	741.6
5736 kPa	741.5
5778 kPa	741.6
5790 kPa	741.5
5806 kPa	741.6
5819 kPa	741.7
5838 kPa	741.6
5851 kPa	741.6
5852 kPa	741.7
5870 kPa	741.7
5887 kPa	741.7
5909 kPa	741.6
5920 kPa	741.7
5926 kPa	741.7
5930 kPa	741.8
5942 kPa	741.8
5960 kPa	741.7
5977 kPa	741.8
5991 kPa	741.8
6008 kPa	741.7
6025 kPa	741.8
6043 kPa	741.7
6063 kPa	741.7
6081 kPa	741.8
6102 kPa	741.8
6122 kPa	741.9
6142 kPa	741.8
6161 kPa	741.9
6626 kPa	742.2
6649 kPa	742.2
6666 kPa	742.3
6683 kPa	742.2
6712 kPa	742.2
6729 kPa	742.3
6755 kPa	742.2
6775 kPa	742.3
6805 kPa	742.3
6826 kPa	742.4
6843 kPa	742.2
6861 kPa	742.4
6877 kPa	742.3
6905 kPa	742.4
6933 kPa	742.4
6948 kPa	742.3
6967 kPa	742.4
6996 kPa	742.4
7021 kPa	742.3
7041 kPa	742.4
7058 kPa	742.5
7077 kPa	742.5
